Results from ChEMBL document CHEMBL1201862, “PubChem BioAssay data set” (2004).
The source made the active and inactive calls.

Columns and labels:
[1] = biological target: T1, Ubiquitin-conjugating enzyme E2 N (Homo sapiens, UniProt P61088); type: functional;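 note: Dose-response confirmation in a TR-FRET assay detecting UBC13-driven polyubiquitin chain formation, inhibition measured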
T1 sequence (P61088 whole entry): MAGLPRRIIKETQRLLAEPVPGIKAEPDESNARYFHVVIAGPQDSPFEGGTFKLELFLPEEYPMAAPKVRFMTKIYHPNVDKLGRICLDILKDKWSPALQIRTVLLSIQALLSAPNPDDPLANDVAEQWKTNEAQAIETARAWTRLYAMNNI

[2] = biological target: DNA repair protein RAD52 homolog (Homo sapiens, UniProt P43351); type: functional, biochemical
Major prion protein = Major prion protein (Homo sapiens, UniProt P04156); type: functional, cell-based
[3] = biological target: T2, DNA repair and recombination protein RAD54-like (Homo sapiens, UniProt Q92698); assay: inhibitors of human RAD54 branch migration, confirmation, biochemical, fluorescence, cherry-picked samples, dose series (AID 651657); type: functional
T2 sequence (Q92698 whole entry): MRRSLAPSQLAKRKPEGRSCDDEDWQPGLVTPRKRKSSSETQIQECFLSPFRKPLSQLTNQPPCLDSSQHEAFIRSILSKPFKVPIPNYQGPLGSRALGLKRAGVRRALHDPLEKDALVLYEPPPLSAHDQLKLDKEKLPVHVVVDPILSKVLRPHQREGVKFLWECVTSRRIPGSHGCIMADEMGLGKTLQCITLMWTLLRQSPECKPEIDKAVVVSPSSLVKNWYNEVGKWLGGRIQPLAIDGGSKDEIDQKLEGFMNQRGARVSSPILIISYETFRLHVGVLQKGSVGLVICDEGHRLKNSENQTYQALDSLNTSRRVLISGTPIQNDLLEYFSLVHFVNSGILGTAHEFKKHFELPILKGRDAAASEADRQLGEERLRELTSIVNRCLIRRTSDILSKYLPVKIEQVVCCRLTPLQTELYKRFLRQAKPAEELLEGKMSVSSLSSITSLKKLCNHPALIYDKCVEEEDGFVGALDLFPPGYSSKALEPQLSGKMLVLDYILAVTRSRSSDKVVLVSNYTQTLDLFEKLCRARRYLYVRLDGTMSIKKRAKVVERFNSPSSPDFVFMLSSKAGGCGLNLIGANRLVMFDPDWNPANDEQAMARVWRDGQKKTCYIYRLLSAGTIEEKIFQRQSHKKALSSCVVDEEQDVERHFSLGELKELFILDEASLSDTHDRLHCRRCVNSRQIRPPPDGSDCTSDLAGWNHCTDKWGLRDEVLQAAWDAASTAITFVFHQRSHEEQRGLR

[4] = cytotoxicity in OVCAR8 ovarian cancer cells, dose response, PAX8 project, cell-based, plate reader, dry powder samples (AID 743197); type: functional; details: OVCAR-8
Paired box protein Pax-8 = Paired box protein Pax-8 (Homo sapiens, UniProt Q06710); assay: inhibitors of PAX8-driven TPO luciferase reporter, dose response, RMG-I cells, cherry-pick (AID 687027); type: functional, cell-based;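 note: luciferase reporter driven by Pax8 target thyroperoxidase promoter measured by SteadyGlo luminescence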
[5] = non-specific cell cytotoxicity, dose response, cytotoxicity control for PAX8 inhibitor project, plate reader, dry powder samples (AID 743021); type: functional, cell-based
[6] = biological target: Potassium channel subfamily K member 3 (Homo sapiens, UniProt O14649); assay: TASK1 (KCNK3) potassium channel inhibitors, SAR follow-up, CHO cells, FluxOR thallium flux (AID 652212); type: functional
[7] = HepG2 cell cytotoxicity, dose response, cytotoxicity control, cherry-picks, set 5 (AID 1053118); type: functional, cell-based
Albumin = Albumin (Bos taurus, UniProt P02769); assay: Counterscreen for inhibitors of T-cell receptor (TCR)-CD3 interaction: Fluorescence-based biochemical high throughput dose response assay to identify inhibitors of T-cell receptor (TCR)-CD3 interaction using a TAMRA-labeled BSA probe.; type: functional
INS1 = assay: beta cell apoptosis inhibitors, cytokine rescue, dose response, luminescence, retest (AID 449756); type: functional, cell-based; details: Rattus norvegicus;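 note: cell death triggered by IL-1 beta plus TNF-alpha plus IFN-gamma mixture; protective hits raise ATP signal compared with cytokine alone wells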
[8] = HepG2 cell cytotoxicity, dose response, cytotoxicity control for Shn3 inhibitor project, CellTiter-Glo, cherry-picked (AID 624134); type: functional, cell-based
[9] = control 3'UTR Renilla luciferase suppression, dose response, counter-screen for Shn3 inhibitor project, cell-based, Clone20-Shn3RL, cherry-picked (AID 624133); type: functional
[10] = Shn3 3'UTR reporter inhibitors, dose response, cell-based, Clone20 osteoblasts, firefly luciferase, cherry-picked (AID 624132); type: functional;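 note: firefly luciferase luminescence from reporter carrying the Shn3 3'UTR in osteoblasts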
[11] = MC4R antagonists, dose response, counter-screen for LGR2 antagonist project, cell-based, plate reader, cherry pick (AID 743444); type: functional;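 note: transfected HEK 293 cells stimulated with alpha-MSH peptide; potency of inhibitors of the alpha-MSH evoked signal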
[12] = Fluorescence-based cell-based high throughput dose response assay for inhibitors of the interaction of nucleotide-binding oligomerization domain containing 2 (NOD2) and the receptor-interacting serine-threonine kinase 2 (RIPK2).; type: functional; details: Homo sapiens
[13] = biological target: COUP transcription factor 2 (Homo sapiens, UniProt P24468); assay: Luminescence-based cell-based high throughput dose response assay to identify inhibitors of COUP-TFII (NR2F2).; type: functional;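 note: HEK293 cells transiently cotransfected with COUP-TFII expression vector and reporter; luciferase reporter luminescence driven by COUP-TFII from the pX2-168 reporter plasmid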
[14] = LGR2 antagonists, dose response, cell-based, HEK293, CRE-luciferase reporter, cherry pick, set 2 (AID 743343); type: functional;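 note: transfected cells were stimulated with diluted bursicon conditioned medium after compound addition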
[15] = HEK293 cell cytotoxicity, dose response, cytotoxicity control, plate reader, cherry-picked samples (AID 743446); type: functional, cell-based
[16] = A549 cell cytotoxicity, dose response, cytotoxicity control, plate reader, cherry-pick, antagonist series (AID 743412); type: functional, cell-based
[17] = HepG2 cell cytotoxicity, dose response, cytotoxicity control, plate reader, cherry-pick, antagonist series (AID 743416); type: functional, cell-based

SMILES: CCC[C@@H](CN1CCC[C@H]1CN1C(N)=NC[C@H]1CC(C)C)N1C[C@@H](Cc2ccccc2)N(CCCC2CCCC2)C1=N
- IC50 [1]: > 20 µM (inactive)
- AC50 [2]: 19.5 µM (active)

SMILES: COc1ccc(-c2nc3ccc(Br)cn3c2Cc2cccc(Cl)c2)cc1OC
- IC50 (cells): > 138 µM (inactive)
- IC50 (Major prion protein): 5.35 µM (active)

SMILES: Cc1ccc(-c2nc(NCCCN(C)C)c3ccccc3n2)cc1
- AC50 [3]: 10.6 µM (active)
- AC50 [2]: 7.08 µM (active)

SMILES: COc1ccccc1C#Cc1ccc2c(c1)O[C@@H](CN(C)Cc1ccncc1)[C@H](C)CN([C@@H](C)CO)S2(=O)=O
- AC50 [4]: 33 µM (active)
- AC50 (Paired box protein Pax-8): 2.84 µM (active)
- AC50 [5]: 33.2 µM (active)

SMILES: CCOc1ccccc1NC(=O)c1cccc(NC(=O)c2ccc(C(F)(F)F)cc2)c1
- IC50 [6]: 220 nM (active)

SMILES: CO[C@@H]1CN(C)C(=O)c2cc(NC(=O)Nc3ccc(Cl)c(Cl)c3)ccc2OC[C@H](C)NC[C@@H]1C
- AC50 [7]: > 52 µM (inactive)

SMILES: O=C(N/N=C/c1cc(Cl)cc([N+](=O)[O-])c1O)c1cccc(S(=O)(=O)N2CCOCC2)c1
- IC50 (Albumin): > 94.1 µM (inactive)

SMILES: OC(c1cc(-c2ccc(C(F)(F)F)cc2)nc(C(F)(F)F)c1)C1CCCCN1 (stereo not drawn) [ENPIROLINE]
- AC50 (INS1): 6.95 µM (active)
- AC50 [8]: 6.6 µM (active)
- AC50 [9]: 3.85 µM (active)
- AC50 (Paired box protein Pax-8): 17.9 µM (active)
- AC50 [5]: 41.7 µM (active)
- AC50 [10]: 4.73 µM (active)

SMILES: CC1CC(C)(O)CC(C(O)CC2CC(=O)NC(=O)C2)C1=O (stereo not drawn) [RESACTIN A]
- AC50 [11]: 1.14 µM (active)
- IC50 [12]: 49.7 µM (inactive)
- IC50 [13]: 360 nM (active)
- AC50 [14]: 441 nM (active)
- AC50 [15]: 757 nM (active)
- AC50 [9]: 6.15 µM (active)
- AC50 [16]: 424 nM (active)
- AC50 (Paired box protein Pax-8): < 0.26 µM (active)
- AC50 [17]: 945 nM (active)
- AC50 [10]: 0.339 µM (active)
